18 compounds from patent publication US20130216498A1, “IMIDAZOPYRIDINE DERIVATIVES AS JAK INHIBITORS” (priority 2009, published 2013) can be followed below.

Molecules are shown by their SMILES.

Holding throughout (format): biochemical
Experiment [1] deals with T1, human JAK2 (aa 826-1132) catalytic domain (Homo sapiens, UniProt O60674).
T1 construct: JAK2 (aa 826-1132); GST (N); purchased Carna Biosciences; host or cells: baculovirus expression system
Kind of experiment: In vitro JAK kinase assay (TR-FRET), JAK2. The settings on record: GST-fusion catalytic domain; ATP 0.2 μM; poly (GT)-Biotin 20 nM; 30 minutes at room temperature. As for the experimental part: (§1) Compounds were screened for their ability to inhibit JAK1, JAK2 and JAK3 using the assays as indicated below.
(§2) The catalytic domains of human JAK1 (aa 850-1154), JAK2 (aa 826-1132), JAK3 (aa 795-1124) and Tyk2 (aa 871-1187) were expressed as N-terminal GST-fusion proteins using a baculovirus expression system and were purchased from Carna Biosciences. The enzymatic activity was assayed using as substrate a biotinylated peptide, poly (GT)-Biotin (CisBio). The peptide concentration in the reactions was 60 nM for JAK1, 20 nM for JAK2, 140 nM for JAK3 and 50 nM for Tyk2. The degree of phosphorylation was detected by TR-FRET (time-resolved fluorescence energy transfer).
(§3) IC50s of compounds were measured for each kinase in a reaction mixture containing the enzyme, ATP and the peptide in 8 mM MOPS (pH 7.0), 10 mM MgCl2, 0.05% β-mercaptoethanol, 0.45 mg/mL BSA. The ATP concentration in the reactions was 3 μM for JAK1, 0.2 μM for JAK2, 0.6 μM for JAK3 and 1.8 μM for Tyk2. The enzymatic reactions took place for 30 minutes at room temperature. Then, the reactions were stopped with 20 μL of quench detection buffer (50 mM HEPES, 0.5 M KF, EDTA 0.25 M, 0.1% (w/v) BSA, pH 7.5) containing 0.115 μg/mL of anti-phosphoTyr (PT66)-Cryptate (CisBio) and a variable concentration of SA-XL665 (CisBio) to keep the SA-B ratio constant. Incubate for 3 h and read on Victor 2V spectrofluorometer (PerkinElmer) set to read fluorescence resonance energy transfer.
On the technique in general: In TR-FRET formats the signal depends on donor and acceptor labels being close together.

The target of experiment [2] is T2, human JAK1 (aa 850-1154) catalytic domain (Homo sapiens, UniProt P23458).
T2 construct: human JAK1 (aa 850-1154); GST (N); purchased Carna Biosciences; host or cells: baculovirus expression system
T2 sequence (P23458 850-1154): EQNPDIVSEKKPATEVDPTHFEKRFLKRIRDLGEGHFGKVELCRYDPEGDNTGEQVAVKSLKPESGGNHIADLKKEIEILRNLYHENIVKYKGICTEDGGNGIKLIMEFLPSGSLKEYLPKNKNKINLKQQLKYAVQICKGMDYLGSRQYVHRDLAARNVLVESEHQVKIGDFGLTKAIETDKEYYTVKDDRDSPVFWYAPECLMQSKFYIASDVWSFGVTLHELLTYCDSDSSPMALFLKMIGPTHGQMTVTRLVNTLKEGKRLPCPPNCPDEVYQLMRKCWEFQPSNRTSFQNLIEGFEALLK
Kind of experiment: In vitro JAK kinase assay (TR-FRET), JAK1. The settings on record: GST-fusion catalytic domain; ATP 3 μM; poly (GT)-Biotin 60 nM; 30 minutes at room temperature. As for the experimental part:
as §1, §2, §3

The target of experiment [3] is T3, human JAK3 (aa 795-1124) catalytic domain (Homo sapiens, UniProt P52333).
T3 construct: JAK3 (aa 795-1124); GST (N); purchased Carna Biosciences; host or cells: baculovirus expression system
T3 sequence (P52333 795-1124): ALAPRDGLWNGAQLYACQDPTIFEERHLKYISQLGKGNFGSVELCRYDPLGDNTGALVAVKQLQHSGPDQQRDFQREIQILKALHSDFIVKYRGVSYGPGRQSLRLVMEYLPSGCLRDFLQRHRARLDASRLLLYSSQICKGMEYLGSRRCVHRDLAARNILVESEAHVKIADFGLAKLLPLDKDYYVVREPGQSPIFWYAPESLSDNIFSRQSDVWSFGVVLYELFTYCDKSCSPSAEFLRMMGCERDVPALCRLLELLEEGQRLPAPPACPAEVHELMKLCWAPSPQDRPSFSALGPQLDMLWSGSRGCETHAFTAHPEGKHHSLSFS
Kind of experiment: In vitro JAK kinase assay (TR-FRET), JAK3. The settings on record: GST-fusion catalytic domain; ATP 0.6 μM; poly (GT)-Biotin 140 nM; 30 minutes at room temperature. The method, then:
as §1, §2, §3

T1 sequence (O60674 826-1132): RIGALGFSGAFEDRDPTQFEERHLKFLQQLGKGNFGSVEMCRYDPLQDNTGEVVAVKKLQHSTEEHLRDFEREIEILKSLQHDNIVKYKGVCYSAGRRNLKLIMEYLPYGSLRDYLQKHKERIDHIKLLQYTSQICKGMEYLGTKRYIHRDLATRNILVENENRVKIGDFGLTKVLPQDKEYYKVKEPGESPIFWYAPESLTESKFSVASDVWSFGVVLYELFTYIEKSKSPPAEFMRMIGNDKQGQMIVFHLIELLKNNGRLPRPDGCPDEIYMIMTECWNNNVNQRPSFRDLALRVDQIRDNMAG

The term IC50 denotes the concentration at which inhibition is half-maximal. For `O=C(C1CC1(F)F)N1CCC[C@@H](Nc2ccnc(-c3cnc4ccc(F)cn34)n2)C1` (stereo partly drawn) [Example 102, (2,2-Difluorocyclopropyl)((R)-3-(2-(6-fluoroimidazo[1,2-a]pyridin-3-yl)pyrimidin-4-ylamino)piperidin-1-yl)methanone], the IC50 is less than 0.1 µM in experiment [1], more than 1 µM in experiment [2] and 0.1 to 1 µM in experiment [3].

Turning to `O=C(Cc1ccc(CO)cc1)N1CCC[C@@H](Nc2ccnc(-c3cnc4ccc(F)cn34)n2)C1` [Example 107, (R)-1-(3-(2-(6-Fluoroimidazo[1,2-a]pyridin-3-yl)pyrimidin-4-ylamino)piperidin-1-yl)-2-(4-(hydroxymethyl)phenyl)ethanone], the concentration for half-maximal inhibition (IC50) was less than 0.1 µM in experiment [1], more than 1 µM in experiment [2] and more than 1 µM in experiment [3].

Consider `N#Cc1cnc(N2CCC[C@@H](Nc3ccnc(-c4cnc5ccc(F)cn45)n3)C2)s1` [Example 131, (R)-2-(3-(2-(6-Fluoroimidazo[1,2-a]pyridin-3-yl)pyrimidin-4-ylamino)piperidin-1-yl)thiazole-5-carbonitrile], for which the IC50 in experiment [1], in experiment [2] and in experiment [3] was less than 0.1 µM throughout.

On to `Cc1cnc(-c2cnc3ccc(F)cn23)nc1N[C@@H]1CCN(C(=O)CC#N)C1` [Example 134, (R)-3-(3-(2-(6-Fluoroimidazo[1,2-a]pyridin-3-yl)-5-methylpyrimidin-4-ylamino)pyrrolidin-1-yl)-3-oxopropanenitrile], for which the half-maximal inhibitory concentration (IC50) was less than 0.1 µM in experiment [1], 0.1 to 1 µM in experiment [2] and 0.1 to 1 µM in experiment [3].

`Nc1cnc(-c2cnc3ccc(F)cn23)nc1NCc1ccc(F)cn1` [Example 136]: the 50% inhibitory concentration (IC50) in experiment [1], in experiment [2] and in experiment [3] was less than 0.1 µM each time.

On to `Nc1cnc(-c2cnc3ccc(F)cn23)nc1NC1CCCc2ncccc21` (stereo not drawn) [Example 137, 2-(6-Fluoroimidazo[1,2-a]pyridin-3-yl)-N^4-(5,6,7,8-tetrahydroquinolin-5-yl)pyrimidine-4,5-diamine], for which the half-maximal inhibitory concentration (IC50) in experiment [1] was less than 0.1 µM; in experiment [2], more than 1 µM; in experiment [3], 0.1 to 1 µM.

For `C[C@@H](c1ccc(F)cn1)N(C)c1nc(-c2cnc3ccc(F)cn23)ncc1C(=O)O` [Example 145, (S)-2-(6-Fluoroimidazo[1,2-a]pyridin-3-yl)-4-((1-(5-fluoropyridin-2-yl)ethyl)(methyl)amino)pyrimidine-5-carboxylic acid], the IC50 in experiment [1] is less than 0.1 µM; in experiment [2] it was 0.1 to 1 µM; in experiment [3], 0.1 to 1 µM.

For the compound `CCC[C@H](Nc1nc(-c2cnc3ccc(F)cn23)ncc1C(N)=O)c1ccc(F)cc1` [Example 151, (S)-2-(6-Fluoroimidazo[1,2-a]pyridin-3-yl)-4-(1-(4-fluorophenyl)butylamino) pyrimidine-5-carboxamide], the IC50 in experiment [1] is less than 0.1 µM; in experiment [2], 0.1 to 1 µM; in experiment [3] it was less than 0.1 µM.

Turning to `N#CC[C@H]1CC[C@H](Nc2nc(-c3cnc4ccc(F)cn34)ncc2C(N)=O)CC1` [Example 153, 4-((1r,4r)-4-(Cyanomethyl)cyclohexylamino)-2-(6-fluoroimidazo[1,2-a]pyridin-3-yl)pyrimidine-5-carboxamide], the values for the IC50 in experiment [1], in experiment [2] and in experiment [3] were less than 0.1 µM, more than 1 µM and less than 0.1 µM, respectively.

As for `CS(=O)(=O)c1cnc(-c2cnc3ccc(F)cn23)nc1N[C@@H]1CCCN(C(=O)CC#N)C1` [Example 159, (R)-3-(3-(2-(6-Fluoroimidazo[1,2-a]pyridin-3-yl)-5-(methylsulfonyl)pyrimidin-4-ylamino)piperidin-1-yl)-3-oxopropanenitrile], the IC50 in experiment [1] was less than 0.1 µM; in experiment [2], more than 1 µM; in experiment [3], 0.1 to 1 µM.

With `COc1cnc(-c2cnc3ccc(F)cn23)nc1N[C@@H]1CCCN(C(=O)CC#N)C1` [Example 163, (R)-3-(3-(2-(6-Fluoroimidazo[1,2-a]pyridin-3-yl)-5-methoxypyrimidin-4-ylamino)piperidin-1-yl)-3-oxopropanenitrile], the IC50 in experiment [1] was less than 0.1 µM; in experiment [2], 0.1 to 1 µM; in experiment [3], less than 0.1 µM.

For `N#CCC(=O)N1CCC[C@@H](Nc2cc(-n3cncn3)nc(-c3cnc4ccc(F)cn34)n2)C1` [Example 164, (R)-3-(3-(2-(6-Fluoroimidazo[1,2-a]pyridin-3-yl)-6-(M−1,2,4-triazol-1-yl)pyrimidin-4-ylamino)piperidin-1-yl)-3-oxopropanenitrile], the concentration for half-maximal inhibition (IC50) in experiment [1] is less than 0.1 µM; in experiment [2] it was 0.1 to 1 µM; in experiment [3], less than 0.1 µM.

In the case of `N#CCC(=O)N1CCC[C@@H](Nc2cc(N3CCNCC3)nc(-c3cnc4ccc(F)cn34)n2)C1` [Example 166, (R)-3-(3-(2-(6-Fluoroimidazo[1,2-a]pyridin-3-yl)-6-(piperazin-1-yl)pyrimidin-4-ylamino)piperidin-1-yl)-3-oxopropanenitrile], the 50% inhibitory concentration (IC50) was less than 0.1 µM in experiment [1], 0.1 to 1 µM in experiment [2] and less than 0.1 µM in experiment [3].

`N#CCC(=O)N1CCC[C@@H](Nc2cc(N3CCC[C@H]3C(=O)O)nc(-c3cnc4ccc(F)cn34)n2)C1` [Example 172]: the IC50 in experiment [1] was less than 0.1 µM; in experiment [2] it was 0.1 to 1 µM; in experiment [3], 0.1 to 1 µM.

Turning to `N#CCC(=O)N1CCC[C@@H](Nc2cc(OCCN3CCOCC3)nc(-c3cnc4ccc(F)cn34)n2)C1` [Example 175, (R)-3-(3-(2-(6-Fluoroimidazo[1,2-a]pyridin-3-yl)-6-(2-morpholinoethoxy)pyrimidin-4-ylamino)piperidin-1-yl)-3-oxopropanenitrile], the IC50 in experiment [1], in experiment [2] and in experiment [3] was less than 0.1 µM throughout.

As to `N#CCC(=O)N1CCC[C@@H](Nc2cc(C(=O)O)nc(-c3cnc4ccc(F)cn34)n2)C1` [Example 181, (R)-6-(1-(2-Cyanoacetyl)piperidin-3-ylamino)-2-(6-fluoroimidazo[1,2-a]pyridin-3-yl)pyrimidine-4-carboxylic acid], the half-inhibitory concentration (IC50) in experiment [1] is less than 0.1 µM; in experiment [2], 0.1 to 1 µM; in experiment [3], 0.1 to 1 µM.

Regarding `N#CCC(=O)N1CCC[C@@H](Nc2cc(N)nc(-c3cnc4ccc(F)cn34)n2)C1` [Example 183, (R)-3-(3-(6-Amino-2-(6-fluoroimidazo[1,2-a]pyridin-3-yl)pyrimidin-4-ylamino)piperidin-1-yl)-3-oxopropanenitrile], the IC50 in experiment [1], in experiment [2] and in experiment [3] was less than 0.1 µM in each case.

With `O=C([C@H](O)CO)N1CCC[C@@H](Nc2nc(-c3cnc4ccc(F)cn34)nc(N3CCOCC3)c2F)C1` [Example 185, (R)-1-((R)-3-(5-Fluoro-2-(6-fluoroimidazo[1,2-a]pyridin-3-yl)-6-morpholinopyrimidin-4-ylamino)piperidin-1-yl)-2,3-dihydroxypropan-1-one], the IC50 in experiment [1] was less than 0.1 µM; in experiment [2] it was 0.1 to 1 µM; in experiment [3], 0.1 to 1 µM.
